# Measurements as given in patent publication US20150219624A1, “METHODS FOR IDENTIFYING ANTI-CANCER COMPOUNDS” (MEMORIAL SLOAN KETTERING CANCER CENTER, priority 2013, published 2015).
# Values joined by “and” are separate entries in the source; they are usually repeats but may differ in a detail not shown here. Equal values may be shown once.
# Experiment: In vivo toxicity studies (body and organ weights, hematology, clinical chemistry, histopathology)
# Method: Toxicity studies. Eight week-old C57Bl/6NTac female mice were randomly assigned to either control or treatment groups. Each treatment group received one daily dose of test article through i.p. injection over 5 consecutive days. Toxicity was monitored by weight loss and daily clinical observation for the 14 days following test article administration. 24 hours after the last test article administration 4 mice in each group were sacrificed and clinical chemistry, hematology and tissue specific histopathology were done at autopsy. The remaining mice (n=2 per group) were kept under observation for an additional 13 days; at that point all mice were sacrificed and clinical chemistry, hematology and tissue specific histopathology were done at time of autopsy.
# D) KOPT-K1 xenograft studies.
# [1] = 0.2 mg/kg, female, Day 5, individual animals
# [2] = 0.2 mg/kg, female, Day 19, % change of mean vs vehicle
# [3] = 0.2 mg/kg, female, Day 19, group mean
# [4] = 0.2 mg/kg, female, Day 19, individual animals
# [5] = bone marrow cytology, count of 300 total cells, individual animals Treatment #7-#10
# [6] = bone marrow cytology, individual animals Treatment #7-#10
# [7] = spleen cytology, individual animals Treatment #7-#10
# [8] = therapeutic doses (0.2 mg/kg i.p.)
substance,measurement,setting,value
(±)-CR-31-B,NEUT,[1],1.05 K/uL and 1.69 K/uL and 1.40 K/uL and 1.70 K/uL
same,NEUT %,[1],21.94% and 24.51% and 28.20% and 24.44%
same,Na,[1],152 mEq/L and 147 mEq/L (2×) and 150 mEq/L
same,PLT,[1],872 K/uL and 673 K/uL and 676 K/uL and 682 K/uL
same,RBC,[1],9.31 M/uL and 8.95 M/uL and 8.69 M/uL and 8.89 M/uL
same,RDW %,[1],15.6% and 16.1% and 15.2% and 16.4%
same,Right Kidney,[1],0.119 gm and 0.125 gm (2×) and 0.135 gm and 0.75 % body wt and 0.73 % body wt and 0.77 % body wt and 0.78 % body wt
same,Spleen,[1],0.049 gm and 0.070 gm and 0.086 gm and 0.064 gm and 0.31 % body wt and 0.41 % body wt and 0.49 % body wt and 0.40 % body wt
same,TBIL,[1],0.2 mg/d L (3×) and 0.1 mg/d L
same,TP,[1],5.1 g/dL and 4.8 g/dL (2×) and 4.9 g/dL
same,WBC,[1],4.78 K/uL and 6.90 K/uL and 4.98 K/uL and 6.96 K/uL
same,BASO % % ChVh,[2],27.3%
same,BASO (K/uL) % ChVh,[2],−100.0%
same,Body Weight % ChVh,[2],3.6%
same,EOS % % ChVh,[2],5.5%
same,EOS (K/uL) % ChVh,[2],−50.0%
same,HCT % % ChVh,[2],0.2%
same,HGB % ChVh,[2],−5.0%
same,LYM % % ChVh,[2],−0.1%
same,LYM (K/uL) % ChVh,[2],−58.8%
same,Left Kidney (% body wt) % ChVh,[2],−9.1%
same,Left Kidney (gm) % ChVh,[2],−11.8%
same,Liver (% body wt) % ChVh,[2],4.1%
same,Liver (gm) % ChVh,[2],7.9%
same,MCH % ChVh,[2],-4.5%
same,MCHC % ChVh,[2],-5.4%
same,MCV % ChVh,[2],0.4%
same,MONO % % ChVh,[2],−34.0%
same,MONO (K/uL) % ChVh,[2],−70.0%
same,MPV % ChVh,[2],4.3%
same,NEUT % % ChVh,[2],3.7%
same,NEUT (K/uL) % ChVh,[2],−56.3%
same,PLT % ChVh,[2],10.5%
same,RBC % ChVh,[2],−0.2%
same,RDW % % ChVh,[2],0.6%
same,Right Kidney (% body wt) % ChVh,[2],−6.3%
same,Right Kidney (gm) % ChVh,[2],−3.6%
same,Spleen (% body wt) % ChVh,[2],0.0%
same,Spleen (gm) % ChVh,[2],3.2%
same,WBC % ChVh,[2],−58.5%
same,BASO,[3],0.00 K/uL
same,BASO %,[3],0.14%
same,Body Weight,[3],17.981 gm
same,EOS,[3],0.02 K/uL
same,EOS %,[3],0.58%
same,HCT %,[3],44.2%
same,HGB,[3],13.2 g/dL
same,LYM,[3],2.46 K/uL
same,LYM %,[3],84.19%
same,MCH,[3],14.7 pg
same,MCHC,[3],29.9 g/dL
same,MCV,[3],49.0 fL
same,MONO,[3],0.03 K/uL
same,MONO %,[3],0.93%
same,MPV,[3],4.8 fL
same,NEUT,[3],0.42 K/uL
same,NEUT %,[3],14.16%
same,PLT,[3],1196.5 K/uL
same,RBC,[3],9.02 M/uL
same,RDW %,[3],16.3%
same,WBC,[3],2.93 K/uL
same,"2D. Individual chemistry, column 2 (head not shown; probably ALP)",[4],144 and 160
same,"2D. Individual chemistry, column 3 (head not shown; probably ALT)",[4],20 and 22
same,"2D. Individual chemistry, column 4 (head not shown; probably AST)",[4],33 and 38
same,"2D. Individual chemistry, column 5 (head not shown; probably GGT)",[4],0
same,"2D. Individual chemistry, column 6 (head not shown; probably albumin)",[4],2.9
same,"2D. Individual chemistry, column 7 (head not shown; probably total protein)",[4],4.7
same,"2D. Individual chemistry, column 8 (head not shown; probably globulin)",[4],1.8
same,"2D. Individual chemistry, column 10 (head not shown; probably total bilirubin)",[4],0.1
same,"2D. Individual chemistry, column 11 (head not shown; probably BUN)",[4],29 and 35
same,"2D. Individual chemistry, column 12 (head not shown; probably creatinine)",[4],0.2
same,BASO,[4],0.00 K/uL
same,BASO %,[4],0.14% and 0.13%
same,Body Weight,[4],18.769 gm and 17.192 gm
same,CHOL,[4],71 mg/dL and 59 mg/dL
same,Ca,[4],9.0 mg/dL and 9.4 mg/dL
same,Cl,[4],112 mEq/L and 117 mEq/L
same,EOS,[4],0.02 K/uL
same,EOS %,[4],0.50% and 0.66%
same,GLUC,[4],254 mg/dL and 227 mg/dL
same,HCT %,[4],45.9% and 42.5%
same,HGB,[4],13.4 g/dL and 13.0 g/dL
same,K,[4],3.5 mEq/L and 4.0 mEq/L
same,LYM,[4],2.80 K/uL and 2.12 K/uL
same,LYM %,[4],83.42% and 84.96%
same,Left Kidney,[4],0.111 gm and 0.113 gm and 0.73 % body wt and 0.66 % body wt
same,Liver,[4],1.111 gm and 0.988 gm and 5.92 % body wt and 5.75 % body wt
same,MCH,[4],14.4 pg and 14.9 pg
same,MCHC,[4],29.2 g/dL and 30.6 g/dL
same,MCV,[4],49.2 fL and 48.8 fL
same,MONO,[4],0.03 K/uL and 0.02 K/uL
same,MONO %,[4],0.91% and 0.95%
same,MPV,[4],4.6 fL and 4.9 fL
same,NEUT,[4],0.51 K/uL and 0.33 K/uL
same,NEUT %,[4],15.03% and 13.29%
same,Na,[4],147 mEq/L and 149 mEq/L
same,PLT,[4],990 K/uL and 1403 K/uL
same,RBC,[4],9.33 M/uL and 8.70 M/uL
same,RDW %,[4],16.4% and 16.2%
same,Right Kidney,[4],0.137 gm and 0.127 gm and 0.73 % body wt and 0.74 % body wt
same,Spleen,[4],0.081 gm and 0.048 gm and 0.43 % body wt and 0.28 % body wt
same,WBC,[4],3.36 K/uL and 2.50 K/uL
same,Lymph,[5],64 and 60 and 61 and 44
same,Mast,[5],0
same,Mat ery,[5],56 and 62 and 45 and 38
same,Mat myel,[5],122 (2×) and 88 (2×) and 120 (2×) and 121 (2×)
same,Plasma,[5],0
same,Pro myel,[5],34 and 64 and 52 and 72
same,Prol ery,[5],24 and 26 and 22 and 25
same,Total Ery,[5],80 and 88 and 67 and 63
same,Total myel,[5],156 and 152 and 172 and 193
same,% Lymph,[6],21.3% and 20.0% and 20.3% and 14.7%
same,% Mast,[6],0.0%
same,% Mat ery,[6],18.7% and 20.7% and 15.0% and 12.7%
same,% Plasma,[6],0.0%
same,% Pro ery,[6],8.0% and 8.7% and 7.3% and 8.3%
same,% Pro myel,[6],11.3% and 21.3% and 17.3% and 24.0%
same,% T ery,[6],26.7% and 29.3% and 22.3% and 21.0%
same,% T myel,[6],52.0% and 50.7% and 57.3% and 64.3%
same,% mat myel,[6],40.7% and 29.3% and 40.0% and 40.3%
same,M:E,[6],2.0 and 1.7 and 2.6 and 3.1
same,intestinal histology,during and after treatment,No changes
same,% Erythroid,[7],0% (3×) and 1%
same,% Lymph,[7],94% (2×) and 90% (4×) and 86% (2×)
same,% Macrophage,[7],2% (3×) and 0%
same,% Mesenchymal,[7],0% (3×) and 2%
same,% Myeloid,[7],4% and 7% and 9% and 10%
same,% Plasma,[7],0% (3×) and 1%
same,"other blood counts, bone marrow cytology, serum chemistry",[8],no other changes
same,white cell count,[8],reversible drop in white cell count with a nadir on day 19
